In one assay the test system is U87MG cells. In words: Inhibition of in vitro proliferation of tumor cells by compounds (CTG, 6 days). The assay is classed as cell-based. The following applies: Homo sapiens, U-87 MG, 144 h, read-out: IC50 in inhibiting in vitro proliferation of U87 cells. As for the experimental part: (§1) This experiment was intended to detect the inhibitory activity of the pharmaceutical compounds of the present disclosure against the in vitro proliferation of U87MG cells (Cell Bank, Chinese Academy of Sciences, Catalog #TCHu138) and SK-BR-3 tumor cells (human breast cancer cells, ATCC, Cat #HTB-30). The cells were treated in vitro with a compound at different concentrations. After 6 days of culture, the proliferation of cells was tested using CTG (CellTiter-Glo® Luminescent Cell Viability Assay, Promega, Cat #G7573) reagents, and the in vitro activity of the compound was evaluated according to IC50 value.
(§2) The method for testing the inhibition of the in vitro proliferation of U87MG cells was described below as an example for the method for assaying for the inhibitory activity of the compounds of the present disclosure against the in vitro proliferation of tumor cells.
(§3) 1. Cell culture: U87MG and SK-BR-3 cells were cultured in EMEM medium (GE, Cat #SH30024.01) containing 10% FBS and McCoy's 5A medium (Gibco, Cat #16600-108) containing 10% FBS, respectively.
(§4) 2. Cell preparation: U87MG and SK-BR-3 cells growing at log phase were washed once with PBS (phosphate buffer, Shanghai BasalMedia Technologies Co., Ltd.) and then digested with 2-3 mL of trypsin (0.25% Trypsin-EDTA (1×), Gibico, Life Technologies) for 2-3 min After the cells were completely digested, 10-15 mL of cell culture media were added to elute the digested cells. The mixtures were centrifuged at 1000 rpm for 5 min, and the supernatants were discarded. Then the cells were resuspended in 10-20 mL of cell culture media to give single-cell suspensions.
(§5) 3. Cell plating: the U87MG and SK-BR-3 single-cell suspensions were each well mixed and adjusted with cell culture media to cell densities of 2.75×10^3 cells/mL and 8.25×10^3 cells/mL, respectively. The adjusted cell suspensions were each well mixed and added to 96-well cell culture plates at 180 μL/well. To each of the peripheral wells of the 96-well plates was added 200 μL of media only. The plate was incubated in an incubator for 24 h (37° C., 5% CO2).
(§6) 4. Compound preparation: the compound was dissolved in DMSO (dimethyl sulfoxide, Shanghai Titan Scientific Co., Ltd.) to prepare a stock solution at an initial concentration of 10 mM.
(§7) Small molecule compounds were prepared at an initial concentration of 500 nM as follows.
(§8) Different test samples at 100 μM (30 μL) were added to the first column of a 96-well U-bottom plate, and 20 μL of DMSO was added to each well of the second column through the eleventh column. […]
(§9) 7. Plate reading: the 96-well cell culture plate was taken out and tested in a microplate reader (BMG labtech, PHERAstar FS) for chemiluminescence.
(§10) Data were processed and analyzed using Microsoft Excel and Graphpad Prism 5.

A further assay concerns SK-BR-3 tumor cells. Described as above. The following applies: Homo sapiens, SK-BR-3, 144 h, read-out: IC50 in inhibiting in vitro proliferation of SK-BR-3 cells. In kind it is cell-based. As to the method:
as §1, §2, §3, §4, §5, §6, §7, §8, §9, §10

For assay [1], the system named is human breast cancer cells trastuzumab drug-resistant strain (herceptin) JIMT-1 xenograft tumor. Description: Drug efficacy on JIMT-1 tumor-bearing mice. The assay is classed as in vivo, nu/nu nude mice. The note with it: 10 mg/kg; two intraperitoneal injections; observation for 34 days. As to the method: The tumor volumes and body weights were measured twice a week and the results were recorded.
Tumor volume (V) was calculated as: V=½×Llong×Lshort^2

We go through four compounds from US20230241242A1, “PREPARATION METHOD FOR ANTIBODY MEDICAMENT CONJUGATE” (priority 2020, published 2023).

On to `CC[C@@]1(O)C(=O)OCc2c1cc1n(c2=O)Cc2c-1nc1cc(F)c(C)c3c1c2[C@@H](NC(=O)C1(O)CC1)CC3` [Compound 1, N-((1S,9S)-9-ethyl-5-fluoro-9-hydroxy-4-methyl-10,13-dioxo-2,3,9,10,13,15-hexahydro-1H,12H-benzo[de]pyrano[3′,4′:6,7]indolizino[1,2-b]quinolin-1-yl)-1-hydroxycyclopropane-1-carboxamide], for which the IC50 in the assay with U87MG cells came out at 0.23 nM; with SK-BR-3 tumor cells, 0.12 nM.
With `CC[C@@]1(O)C(=O)OCc2c1cc1n(c2=O)Cc2c-1nc1cc(F)c(C)c3c1c2[C@@H](NC(=O)C1(O)CCCC1)CC3` [Compound 4, N-((1S,9S)-9-ethyl-5-fluoro-9-hydroxy-4-methyl-10,13-dioxo-2,3,9,10,13,15-hexahydro-1H,12H-benzo[de]pyrano[3′,4′:6,7]indolizino[1,2-b]quinolin-1-yl)-1-hydroxycyclopentane-1-carboxamide], the IC50 in the assay on SK-BR-3 tumor cells stood at 1.9 nM.
In the case of `CC[C@@]1(O)C(=O)OCc2c1cc1n(c2=O)Cc2c-1nc1cc(F)c(C)c3c1c2[C@@H](NC(=O)C1(CO)CC1)CC3` [Compound 5, N-((1S,9S)-9-ethyl-5-fluoro-9-hydroxy-4-methyl-10,13-dioxo-2,3,9,10,13,15-hexahydro-1H,12H-benzo[de]pyrano[3′,4′:6,7]indolizino[1,2-b]quinolin-1-yl)-1-(hydroxymethyl)cyclopropane-1-carboxamide], the IC50 in the assay on U87MG cells amounted to 4.81 nM.
For the compound T-DM1, in assay [1], the tumor inhibition rate result was “no inhibition effect on tumors”.
